Experimental data published in paper PMC6582431 (Chemmedchem, 2018).
Where two headings read alike, the source gives them in different places.

How the values were obtained:
FAAH [1] = molecular target: T1, FAAH (Mus musculus, UniProt O08914); assay: In vivo FAAH inhibition, liver, after oral administration to mice; settings: for in vivo FAAH inhibitory activity, liver: 0.1 mg kg^−1, mouse, p.o., text b31; for time of maximum inhibitory effect in the liver: 0.1 mg kg^−1 p.o., mice, post-dose
T1 sequence (O08914 1-579): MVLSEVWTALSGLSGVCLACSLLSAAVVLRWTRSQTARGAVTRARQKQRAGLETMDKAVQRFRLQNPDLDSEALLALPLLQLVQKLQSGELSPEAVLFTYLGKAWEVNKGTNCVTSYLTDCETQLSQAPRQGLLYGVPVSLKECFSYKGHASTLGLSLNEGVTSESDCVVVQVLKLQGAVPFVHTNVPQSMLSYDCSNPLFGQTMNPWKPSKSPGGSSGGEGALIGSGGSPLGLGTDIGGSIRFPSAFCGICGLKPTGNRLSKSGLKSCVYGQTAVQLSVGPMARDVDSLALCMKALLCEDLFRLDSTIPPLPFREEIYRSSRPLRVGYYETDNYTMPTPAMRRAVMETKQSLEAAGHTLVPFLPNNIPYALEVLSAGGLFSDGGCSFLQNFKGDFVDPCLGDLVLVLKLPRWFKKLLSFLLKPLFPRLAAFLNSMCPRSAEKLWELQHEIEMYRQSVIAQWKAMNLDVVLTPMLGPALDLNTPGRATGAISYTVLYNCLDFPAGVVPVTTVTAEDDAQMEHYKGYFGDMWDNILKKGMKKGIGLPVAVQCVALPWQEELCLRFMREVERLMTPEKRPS

MAGL = molecular target: T2, MAGL (Rattus norvegicus, UniProt Q8R431); assay: MAGL activity in rat cerebellum cytosol; format: biochemical; settings: for MAGL activity, percent of control / MAGL (100 μM), percent of control: C inhib=100 μM in rat cerebellum cytosol; for MAGL activity, percent of control: Table 2; for selectivity over MAGL: text b31
T2 sequence (Q8R431 1-303): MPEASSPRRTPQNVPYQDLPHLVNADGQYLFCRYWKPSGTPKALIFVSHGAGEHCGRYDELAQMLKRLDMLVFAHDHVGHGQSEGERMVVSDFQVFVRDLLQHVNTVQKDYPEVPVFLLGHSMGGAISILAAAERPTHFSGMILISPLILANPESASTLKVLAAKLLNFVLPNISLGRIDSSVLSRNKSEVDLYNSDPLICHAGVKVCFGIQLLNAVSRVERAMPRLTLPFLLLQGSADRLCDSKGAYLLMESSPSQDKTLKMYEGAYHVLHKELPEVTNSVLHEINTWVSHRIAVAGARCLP

FAAH [2] = molecular target: T1, FAAH; assay: In vivo FAAH inhibition, brain, after oral administration to mice; settings: for in vivo FAAH inhibitory activity, brain: text b31; for time of maximal inhibitory effect in the brain (t max): post-dose; for ED50 cerebral FAAH: 0.001 to 3 mg kg^−1, 8 h post-administration
carboxylesterases (CEs) = assay: CE activity in rat liver microsomes; format: biochemical; settings: for CEs (10 μM), percent of control: 10 μM in rat liver microsomes; for CEs activity, percent of control: C inhib=10 μM in rat liver microsomes, Table 2; for selectivity over CEs: text b31
FAAH [3] = settings: read-out: FAAH IC50 (in vitro potency); cited from earlier work
[4] = CYP450 metabolic stability, mouse liver microsomes; format: in vitro ADME; settings: 1 h incubation; for CYPs (50 μM), percentage remaining: C inhib=50 μM in mouse liver microsomes; for CYP450 metabolic stability, Mouse, percent of remaining: 5 μM in liver microsomes
[5] = CYP450 metabolic stability, rat liver microsomes; format: in vitro ADME; settings: 5 μM in liver microsomes, 1 h incubation
[6] = CYP450 metabolic stability, dog liver microsomes; format: in vitro ADME; settings: 5 μM in liver microsomes, 1 h incubation
[7] = CYP450 metabolic stability, primate liver microsomes; format: in vitro ADME; settings: 5 μM in liver microsomes, 1 h incubation
[8] = CYP450 metabolic stability, human liver microsomes; format: in vitro ADME; settings: 5 μM in liver microsomes, 1 h incubation
FAAH [9] = molecular target: T3, FAAH (Rattus norvegicus, UniProt P97612); assay: In vitro FAAH activity in rat brain homogenates/membranes; format: biochemical; settings: for FAAH activity, percent of control, 100 nM / FAAH activity, percent of control, 10 nM: rat brain homogenates, 15 min pre-incubation
T3 sequence (P97612 1-579): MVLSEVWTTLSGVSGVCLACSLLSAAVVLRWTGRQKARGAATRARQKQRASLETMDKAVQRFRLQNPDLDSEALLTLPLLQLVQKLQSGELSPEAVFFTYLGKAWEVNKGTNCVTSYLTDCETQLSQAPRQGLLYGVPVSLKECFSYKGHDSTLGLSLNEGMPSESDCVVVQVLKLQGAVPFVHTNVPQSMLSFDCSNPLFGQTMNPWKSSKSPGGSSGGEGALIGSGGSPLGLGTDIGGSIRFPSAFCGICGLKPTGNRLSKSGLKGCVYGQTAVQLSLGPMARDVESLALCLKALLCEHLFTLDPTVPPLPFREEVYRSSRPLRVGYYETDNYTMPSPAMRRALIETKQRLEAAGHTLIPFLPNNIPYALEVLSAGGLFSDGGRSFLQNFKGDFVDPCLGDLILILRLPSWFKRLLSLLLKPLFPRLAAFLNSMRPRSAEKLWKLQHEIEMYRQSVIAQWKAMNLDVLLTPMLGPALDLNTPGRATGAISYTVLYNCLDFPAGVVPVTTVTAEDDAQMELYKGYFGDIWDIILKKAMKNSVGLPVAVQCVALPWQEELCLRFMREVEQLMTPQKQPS

[10] = 0.1 mg kg^−1 p.o. in mice, 8 h after administration, Table 4
[11] = 30 mg kg^−1 p.o. in mice, 1 h after administration, Table 2
[12] = mouse, po, 8 h, read-out: ED50 liver FAAH
[13] = 0.1 mg kg^−1 p.o. in mice, 8 h after administration, Table 5

Compound | Liver FAAH activity, percent of control (FAAH [1]; [10]) | Liver FAAH activity, percent of control (FAAH [1]; [11]) | MAGL activity, percent of control (MAGL) | MAGL (100 μM), percent of control (MAGL; Table 4) | Brain FAAH activity, percent of control (FAAH [2]; [10]) | Brain FAAH activity, percent of control (FAAH [2]; [11]) | CEs (10 μM), percent of control (carboxylesterases (CEs); Table 4) | CEs activity, percent of control (carboxylesterases (CEs)) | CYPs (50 μM), percentage remaining [4] [percentage remaining] | CYP450 metabolic stability, Mouse, percent of remaining [4] | CYP450 metabolic stability, Rat, percent of remaining [5] | CYP450 metabolic stability, Dog, percent of remaining [6] | CYP450 metabolic stability, Primate, percent of remaining [7] | CYP450 metabolic stability, Human, percent of remaining [8] | further results
NC(=O)c1cccc(-c2cccc(OC(=O)NC3CCCCC3)c2)c1 [Compound 2, URB597, reference compound] | 74±20% of control | 6±1% of control | 87±4% of control | 87±4% of control | 91±7% of control | 9±2% of control | […] | […] |  |  |  |  |  |  | inhibition at 30 mg/kg (FAAH [1]; mouse, po, read-out: FAAH inhibition in the liver): > 90%; FAAH inhibition in the brain (FAAH [2]; 30 mg kg^−1 p.o., mice, 1 h post-administration): over 90%; IC50 (FAAH [3]): […]
CC1(C)COCN1C(=O)n1nnc2ccc(Br)cc21 [Compound 11 b, (6‐Bromo‐1H‐benzo[d][1,2,3]triazol‐1‐yl)(4,4‐dimethyloxazolidin‐3‐yl)methanone] | 16±6% of control |  |  | 67±12% of control | 77±29% of control |  | 73±9% of control |  | 8±2 |  |  |  |  |  | 
CC1(C)COCN1C(=O)n1nnc2cc(C(N)=O)ccc21 [Compound 11 h, 1‐(4,4‐Dimethyloxazolidine‐3‐carbonyl)‐1H‐benzo[d][1,2,3]triazole‐5‐carboxamide] | 6±1% of control |  |  | 96±2% of control | 6±1% of control |  | 81±7% of control |  | 67±2 | 87±9% of remaining | 87±0% of remaining | 101±6% of remaining | 57±3% of remaining | 96±8% of remaining | in vivo FAAH inhibitory activity, liver (FAAH [1]): > 90 % of control; time of maximum inhibitory effect in the liver (FAAH [1]): 1 h; ED50 (FAAH [1]; [12]): 0.007 mg/kg; inhibition at 0.1 mg/kg (FAAH [1]; mouse, po, read-out: peripheral inhibition of FAAH sustained over the next 7 h): > 90%; selectivity over MAGL (MAGL): > 80 % of control; in vivo FAAH inhibitory activity, brain (FAAH [2]; 0.1 mg kg^−1, mouse, p.o.): > 90 % of control; time of maximal inhibitory effect in the brain (t max) (FAAH [2]; 0.1 mg kg^−1 p.o., mice): 1 h; ED50 cerebral FAAH (FAAH [2]; mice, p.o.): 0.014 mg/kg; selectivity over CEs (carboxylesterases (CEs)): > 80 % of control
CN(C(=O)n1cnc(-c2ccccc2)c1)C1CCN(Cc2ccccc2)CC1 [Compound 8 h] |  |  |  |  |  |  |  |  |  | 62±0% of remaining | 88±6% of remaining | 54±0% of remaining | 41±3% of remaining | 75±4% of remaining | FAAH activity, percent of control, 100 nM (FAAH [9]; Table 5): 41±7% of control; in vivo FAAH inhibitory activity, liver (FAAH [1]): > 90 % of control; Liver FAAH activity, percent of control (FAAH [1]; [13]): 10±2% of control; time of maximum inhibitory effect in the liver (FAAH [1]): 1 h; ED50 (FAAH [1]; [12]): 0.028 mg/kg; inhibition at 0.1 mg/kg (FAAH [1]; mouse, po, read-out: peripheral (liver) FAAH inhibition): > 90%; MAGL (100 μM), percent of control (MAGL; Table 5): 92±8% of control; selectivity over MAGL (MAGL): > 80 % of control; cerebral (brain) FAAH inhibition (FAAH [2]; 0.1 mg kg^−1, mouse, p.o., 8 h post-dose): over 90%; in vivo FAAH inhibitory activity, brain (FAAH [2]; 0.1 mg kg^−1, mouse, p.o.): > 90 % of control; Brain FAAH activity, percent of control (FAAH [2]; [13]): 11±4% of control; time of maximal inhibitory effect in the brain (t max) (FAAH [2]; 0.1 mg kg^−1 p.o., mice): 8 h; central FAAH inhibition maintained up to 48 h post-administration (FAAH [2]; 0.1 mg kg^−1 p.o., mice, up to 48 h): > 50%; ED50 cerebral FAAH (FAAH [2]; mice, p.o.): approximately 79 μg kg^−1; CEs (10 μM), percent of control (carboxylesterases (CEs); Table 5): 97±8% of control; selectivity over CEs (carboxylesterases (CEs)): > 80 % of control
CC1(C)COCN1C(=O)n1nnc2ccc(-c3ccccc3)cc21 [Compound 11 d, (4,4‐Dimethyloxazolidin‐3‐yl)(6‐phenyl‐1H‐benzo[d][1,2,3]triazol‐1‐yl)methanone] | 54±6% of control |  |  |  | 76±18% of control |  | 92±2% of control |  | 73±2 |  |  |  |  |  | 
O=C(NCc1ccccc1)n1nnc2ccccc21 [Compound 10 e] |  | 84±6% of control | 4±1% of control |  |  | 87±7% of control |  | 67±4% of control |  |  |  |  |  |  | FAAH activity, percent of control, 10 nM (FAAH [9]; Table 2): 13±1% of control; FAAH activity, percent of control, 100 nM (FAAH [9]; Table 2): 2±1% of control
CC1(C)COCN1C(=O)n1nnc2ccccc21 [Compound 11 a] | 10±4% of control | 2±1% of control | 90±5% of control | 90±5% of control | 24±7% of control | 0±0% of control | 81±6% of control | 81±6% of control | 25±2 | 5±0% of remaining | 26±0% of remaining | 1±0% of remaining | 0±0% of remaining | 52±9% of remaining | IC50 (FAAH [9]): 19 nM; FAAH activity, percent of control, 10 nM (FAAH [9]; Table 2): 78±25% of control; FAAH activity, percent of control, 100 nM (FAAH [9]; Table 2): 2±1% of control; ED50 (FAAH [1]; mouse, po, 1 h, read-out: ED50 liver (peripheral) FAAH): 0.007 mg/kg; ED50 brain (cerebral) FAAH (FAAH [2]; mouse, p.o., 0.001–3.0 mg kg^−1, 1 h post-dose): 0.061 mg/kg
CN(C(=O)n1cnc(-c2cccnc2)c1)C1CCCCC1 [Compound 8 k, N ‐Cyclohexyl‐N‐methyl‐4‐(pyridin‐3‐yl)‐1H‐imidazole‐1‐carboxamide] |  |  |  |  |  |  |  |  |  |  |  |  |  |  | FAAH activity, percent of control, 100 nM (FAAH [9]; Table 5): 75±7% of control; Liver FAAH activity, percent of control (FAAH [1]; [13]): 13±4% of control; MAGL (100 μM), percent of control (MAGL; Table 5): 94±4% of control; Brain FAAH activity, percent of control (FAAH [2]; [13]): 75±16% of control; CEs (10 μM), percent of control (carboxylesterases (CEs); Table 5): 97±3% of control
